Activity calls are given as the source filed them. The calls are words filed in the database; no cut-off is given here. Where a SMILES comes first, the peptide text is derived from it.
Tests used:
[1] = biological target: Neuronal acetylcholine receptor; alpha9/alpha10 (Homo sapiens, UniProt Q9GZZ6+Q9UGM1); experiment: Antagonist activity at human alpha9alpha10 nACh receptor expressed in Xenopus oocyte assessed as inhibition of acetylcholine-induced response at -70 mV holding potential by voltage-clamp based electrophysiological assay; format: cell-based
Neuronal acetylcholine receptor; alpha9/alpha10, sequence (Q9UGM1 whole entry): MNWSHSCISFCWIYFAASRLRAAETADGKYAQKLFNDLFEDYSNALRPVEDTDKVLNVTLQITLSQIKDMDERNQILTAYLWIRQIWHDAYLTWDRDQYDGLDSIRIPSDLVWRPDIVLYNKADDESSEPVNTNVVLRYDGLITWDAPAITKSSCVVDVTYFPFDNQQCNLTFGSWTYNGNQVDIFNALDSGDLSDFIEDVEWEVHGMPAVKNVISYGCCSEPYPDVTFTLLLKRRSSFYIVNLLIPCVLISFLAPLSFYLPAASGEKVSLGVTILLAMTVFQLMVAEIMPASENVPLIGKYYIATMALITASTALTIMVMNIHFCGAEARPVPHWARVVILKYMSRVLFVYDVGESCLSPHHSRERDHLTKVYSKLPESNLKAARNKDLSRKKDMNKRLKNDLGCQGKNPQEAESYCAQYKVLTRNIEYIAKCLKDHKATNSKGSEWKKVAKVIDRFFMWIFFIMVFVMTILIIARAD
Neuronal acetylcholine receptor; alpha9/alpha10, sequence (Q9GZZ6 whole entry): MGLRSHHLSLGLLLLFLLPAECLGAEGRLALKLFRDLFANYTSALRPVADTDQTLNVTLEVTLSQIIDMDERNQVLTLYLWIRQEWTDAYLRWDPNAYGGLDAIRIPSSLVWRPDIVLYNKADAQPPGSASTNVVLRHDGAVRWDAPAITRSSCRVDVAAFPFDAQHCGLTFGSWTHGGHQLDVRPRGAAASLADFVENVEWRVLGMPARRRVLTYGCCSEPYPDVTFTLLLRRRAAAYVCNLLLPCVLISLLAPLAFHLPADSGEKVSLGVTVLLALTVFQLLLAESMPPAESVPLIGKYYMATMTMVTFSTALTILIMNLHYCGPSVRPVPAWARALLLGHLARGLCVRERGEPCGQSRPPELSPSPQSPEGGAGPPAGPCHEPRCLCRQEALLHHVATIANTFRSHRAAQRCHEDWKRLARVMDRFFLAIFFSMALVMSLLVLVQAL

[2] = Selectivity ratio of IC50 for human alpha9alpha10 nACh receptor to IC50 for rat alpha9alpha10 nACh receptor
[3] = biological target: Nicotinic acetylcholine receptor alpha9/alpha10 (Rattus norvegicus, UniProt P43144+Q9JLB5); experiment: Antagonist activity at rat alpha9alpha10 nACh receptor expressed in Xenopus oocyte assessed as inhibition of acetylcholine-induced response at -70 mV holding potential by voltage-clamp based electrophysiological assay; format: cell-based
Nicotinic acetylcholine receptor alpha9/alpha10, sequence (P43144 whole entry): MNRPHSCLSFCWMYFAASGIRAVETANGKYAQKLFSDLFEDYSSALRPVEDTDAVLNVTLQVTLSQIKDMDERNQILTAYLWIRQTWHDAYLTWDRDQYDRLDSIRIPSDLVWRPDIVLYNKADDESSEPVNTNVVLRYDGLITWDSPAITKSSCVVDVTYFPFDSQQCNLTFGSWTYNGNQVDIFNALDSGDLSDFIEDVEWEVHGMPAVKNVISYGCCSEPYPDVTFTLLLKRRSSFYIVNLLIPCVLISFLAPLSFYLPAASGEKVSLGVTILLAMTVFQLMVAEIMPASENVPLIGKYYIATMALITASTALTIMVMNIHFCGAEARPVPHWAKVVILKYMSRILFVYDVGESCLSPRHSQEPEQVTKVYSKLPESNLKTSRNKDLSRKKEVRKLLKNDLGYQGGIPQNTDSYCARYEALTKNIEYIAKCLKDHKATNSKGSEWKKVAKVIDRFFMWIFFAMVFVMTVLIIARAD
Nicotinic acetylcholine receptor alpha9/alpha10, sequence (Q9JLB5 whole entry): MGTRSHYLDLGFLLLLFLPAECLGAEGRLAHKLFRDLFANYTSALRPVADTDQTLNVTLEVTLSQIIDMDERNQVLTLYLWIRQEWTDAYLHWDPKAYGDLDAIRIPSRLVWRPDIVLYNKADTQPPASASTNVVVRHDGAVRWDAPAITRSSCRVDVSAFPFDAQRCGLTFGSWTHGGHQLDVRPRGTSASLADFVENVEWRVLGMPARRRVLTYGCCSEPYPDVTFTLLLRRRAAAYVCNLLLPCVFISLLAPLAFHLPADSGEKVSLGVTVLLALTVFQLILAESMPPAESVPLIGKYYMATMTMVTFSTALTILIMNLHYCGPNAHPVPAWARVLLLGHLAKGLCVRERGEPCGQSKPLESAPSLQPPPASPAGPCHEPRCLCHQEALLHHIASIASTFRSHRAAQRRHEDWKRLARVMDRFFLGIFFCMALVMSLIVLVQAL

[4] = Stability of the compound in human serum assessed as compound remaining after 6 hr by UPLC analysis; format: ADME, cell-free
[5] = biological target: Neuronal acetylcholine receptor subunit alpha-7 (Rattus norvegicus, UniProt Q05941); experiment: Antagonist activity at rat alpha7 nACh receptor expressed in Xenopus oocyte assessed as inhibition of acetylcholine-induced response at -70 mV holding potential by voltage-clamp based electrophysiological assay; format: cell-based
Neuronal acetylcholine receptor subunit alpha-7, sequence (Q05941 whole entry): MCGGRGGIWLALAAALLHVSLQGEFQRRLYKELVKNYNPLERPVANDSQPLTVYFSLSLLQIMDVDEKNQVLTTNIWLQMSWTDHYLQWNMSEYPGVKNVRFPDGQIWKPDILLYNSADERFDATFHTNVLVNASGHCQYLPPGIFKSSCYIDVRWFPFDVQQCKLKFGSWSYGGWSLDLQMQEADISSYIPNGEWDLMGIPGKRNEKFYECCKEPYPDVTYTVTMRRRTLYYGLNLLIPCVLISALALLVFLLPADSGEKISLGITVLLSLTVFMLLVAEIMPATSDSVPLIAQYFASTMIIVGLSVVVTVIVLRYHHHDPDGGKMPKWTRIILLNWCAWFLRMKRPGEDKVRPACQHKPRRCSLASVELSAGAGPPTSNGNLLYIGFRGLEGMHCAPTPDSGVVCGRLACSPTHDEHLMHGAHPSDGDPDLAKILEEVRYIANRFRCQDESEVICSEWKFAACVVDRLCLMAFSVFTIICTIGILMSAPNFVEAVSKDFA

[6] = biological target: T1, Neuronal acetylcholine receptor; alpha9/alpha10 (Homo sapiens) (UniProt Q9UGM1+Q9GZZ6); experiment: Antagonist activity at human alpha9alpha10 nACh receptor expressed in Xenopus oocyte assessed as inhibition of acetylcholine-induced response at -70 mV holding potential by measuring current response at 10 nM by voltage-clamp based electrophysiological assay; format: cell-based; details: filed as antagonist
[7] = biological target: Nicotinic acetylcholine receptor alpha9/alpha10 (Rattus norvegicus) (UniProt P43144+Q9JLB5); experiment: Antagonist activity at rat alpha9alpha10 nACh receptor expressed in Xenopus oocyte assessed as inhibition of acetylcholine-induced response at -70 mV holding potential by measuring recovery at 10 nM after 5 mins by voltage-clamp based electrophysiological assay relative to control; format: cell-based; details: filed as antagonist
[8] = biological target: T1, Neuronal acetylcholine receptor; alpha9/alpha10 (Homo sapiens); experiment: Antagonist activity at human alpha9alpha10 nACh receptor expressed in Xenopus oocyte assessed as inhibition of acetylcholine-induced response at -70 mV holding potential by measuring leftward shit in concentration response curve at 10 nM by voltage-clamp based electrophysiological assay; format: cell-based; details: filed as antagonist
[9] = biological target: Neuronal acetylcholine receptor; alpha2/beta4 (Rattus norvegicus, UniProt P12389+P12392); experiment: Antagonist activity at rat alpha2beta4 nACh receptor expressed in Xenopus oocyte assessed as inhibition of acetylcholine-induced response at -70 mV holding potential by voltage-clamp based electrophysiological assay; format: cell-based
[10] = biological target: Neuronal acetylcholine receptor; alpha2/beta2 (Rattus norvegicus, UniProt P12389+P12390); experiment: Antagonist activity at rat alpha2beta2 nACh receptor expressed in Xenopus oocyte assessed as inhibition of acetylcholine-induced response at -70 mV holding potential by voltage-clamp based electrophysiological assay; format: cell-based
[11] = biological target: Neuronal acetylcholine receptor; alpha3/beta4 (Rattus norvegicus, UniProt P04757+P12392); experiment: Antagonist activity at rat alpha3beta4 nACh receptor expressed in Xenopus oocyte assessed as inhibition of acetylcholine-induced response at -70 mV holding potential by voltage-clamp based electrophysiological assay; format: cell-based
Neuronal acetylcholine receptor; alpha3/beta4, sequence (P04757 whole entry): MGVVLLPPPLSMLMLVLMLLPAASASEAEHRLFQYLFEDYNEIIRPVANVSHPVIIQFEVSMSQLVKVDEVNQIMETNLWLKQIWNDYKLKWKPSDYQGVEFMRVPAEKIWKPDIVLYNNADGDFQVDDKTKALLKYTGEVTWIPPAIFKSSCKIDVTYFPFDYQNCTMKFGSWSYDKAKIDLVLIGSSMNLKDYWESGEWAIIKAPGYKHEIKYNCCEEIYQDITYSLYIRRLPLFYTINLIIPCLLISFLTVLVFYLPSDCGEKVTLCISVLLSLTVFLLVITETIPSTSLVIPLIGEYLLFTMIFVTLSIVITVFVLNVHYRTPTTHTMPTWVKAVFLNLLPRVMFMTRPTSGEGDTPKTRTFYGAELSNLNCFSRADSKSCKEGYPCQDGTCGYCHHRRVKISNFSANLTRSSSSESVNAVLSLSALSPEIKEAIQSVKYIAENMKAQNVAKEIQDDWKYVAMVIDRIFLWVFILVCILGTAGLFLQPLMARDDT
Neuronal acetylcholine receptor; alpha3/beta4, sequence (P12392 whole entry): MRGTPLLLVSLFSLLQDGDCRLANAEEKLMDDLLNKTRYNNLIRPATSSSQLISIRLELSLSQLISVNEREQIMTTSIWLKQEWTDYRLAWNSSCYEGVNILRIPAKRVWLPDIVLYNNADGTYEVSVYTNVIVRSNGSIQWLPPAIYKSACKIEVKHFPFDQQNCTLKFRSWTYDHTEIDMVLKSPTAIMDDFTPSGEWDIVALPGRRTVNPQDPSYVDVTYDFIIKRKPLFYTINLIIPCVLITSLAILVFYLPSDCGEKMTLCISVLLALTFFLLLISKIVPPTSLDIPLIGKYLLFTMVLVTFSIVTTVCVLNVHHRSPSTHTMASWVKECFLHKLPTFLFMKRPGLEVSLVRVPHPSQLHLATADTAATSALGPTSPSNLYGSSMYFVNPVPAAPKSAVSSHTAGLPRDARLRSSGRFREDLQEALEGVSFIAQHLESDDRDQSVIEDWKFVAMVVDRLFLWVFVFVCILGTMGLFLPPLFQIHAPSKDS

[12] = biological target: Neuronal acetylcholine receptor; alpha4/beta2 (Rattus norvegicus, UniProt P09483+P12390); experiment: Antagonist activity at rat alpha4beta2 nACh receptor expressed in Xenopus oocyte assessed as inhibition of acetylcholine-induced response at -70 mV holding potential by voltage-clamp based electrophysiological assay; format: cell-based
Neuronal acetylcholine receptor; alpha4/beta2, sequence (P09483 whole entry): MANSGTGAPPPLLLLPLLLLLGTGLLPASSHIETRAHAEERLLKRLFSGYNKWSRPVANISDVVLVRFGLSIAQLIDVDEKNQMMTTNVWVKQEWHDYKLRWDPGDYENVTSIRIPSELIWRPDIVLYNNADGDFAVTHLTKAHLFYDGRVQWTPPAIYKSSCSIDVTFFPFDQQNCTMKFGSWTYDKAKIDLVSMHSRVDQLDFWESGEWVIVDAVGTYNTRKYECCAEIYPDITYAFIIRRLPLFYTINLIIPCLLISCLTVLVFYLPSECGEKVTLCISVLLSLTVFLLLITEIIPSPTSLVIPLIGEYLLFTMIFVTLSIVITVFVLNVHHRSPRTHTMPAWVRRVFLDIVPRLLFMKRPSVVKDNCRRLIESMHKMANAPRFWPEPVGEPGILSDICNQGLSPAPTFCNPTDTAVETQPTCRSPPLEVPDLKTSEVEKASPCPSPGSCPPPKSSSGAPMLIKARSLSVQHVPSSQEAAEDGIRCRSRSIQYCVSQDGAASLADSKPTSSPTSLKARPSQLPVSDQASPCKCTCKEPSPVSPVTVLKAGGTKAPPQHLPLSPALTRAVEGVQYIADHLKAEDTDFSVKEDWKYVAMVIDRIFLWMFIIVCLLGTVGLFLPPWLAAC
Neuronal acetylcholine receptor; alpha4/beta2, sequence (P12390 whole entry): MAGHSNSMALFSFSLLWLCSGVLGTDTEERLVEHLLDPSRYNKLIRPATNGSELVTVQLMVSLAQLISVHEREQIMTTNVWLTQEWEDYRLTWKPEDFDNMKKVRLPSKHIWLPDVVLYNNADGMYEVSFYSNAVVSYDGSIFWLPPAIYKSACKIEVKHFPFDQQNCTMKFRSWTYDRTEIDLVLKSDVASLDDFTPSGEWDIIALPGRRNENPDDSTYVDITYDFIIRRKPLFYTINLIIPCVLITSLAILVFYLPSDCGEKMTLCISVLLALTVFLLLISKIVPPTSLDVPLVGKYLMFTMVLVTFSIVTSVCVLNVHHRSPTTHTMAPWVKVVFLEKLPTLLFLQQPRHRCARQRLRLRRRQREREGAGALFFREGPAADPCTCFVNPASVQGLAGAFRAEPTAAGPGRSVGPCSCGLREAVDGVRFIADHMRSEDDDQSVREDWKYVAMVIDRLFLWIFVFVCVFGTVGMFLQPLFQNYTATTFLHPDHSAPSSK

[13] = biological target: Neuronal acetylcholine receptor; alpha4/beta4 (Rattus norvegicus, UniProt P09483+P12392); experiment: Antagonist activity at rat alpha4beta4 nACh receptor expressed in Xenopus oocyte assessed as inhibition of acetylcholine-induced response at -70 mV holding potential by voltage-clamp based electrophysiological assay; format: cell-based
Neuronal acetylcholine receptor; alpha4/beta4, sequence (P09483 whole entry): as the sequence (P09483 whole entry) above
Neuronal acetylcholine receptor; alpha4/beta4, sequence (P12392 whole entry): as the sequence (P12392 whole entry) above

[14] = biological target: Neuronal acetylcholine receptor; alpha3/beta2 (Rattus norvegicus, UniProt P04757+P12390); experiment: Antagonist activity at rat alpha3beta2 nACh receptor expressed in Xenopus oocyte assessed as inhibition of acetylcholine-induced response at -70 mV holding potential by voltage-clamp based electrophysiological assay; format: cell-based
Neuronal acetylcholine receptor; alpha3/beta2, sequence (P04757 whole entry): as the sequence (P04757 whole entry) above
Neuronal acetylcholine receptor; alpha3/beta2, sequence (P12390 whole entry): as the sequence (P12390 whole entry) above

[15] = biological target: Nicotinic acetylcholine receptor alpha6/alpha3/beta4 (Rattus norvegicus, UniProt P04757+P12392+P43143); experiment: Antagonist activity at rat alpha6/alpha3beta4 nACh receptor expressed in Xenopus oocyte assessed as inhibition of acetylcholine-induced response at -70 mV holding potential by voltage-clamp based electrophysiological assay; format: cell-based

Structure (SMILES) | IC50 [1] [nM] | Ratio IC50 [2] | IC50 [3] [nM] | IC50 [5] [nM] | also measured
CC[C@H](C)[C@H](NC(=O)[C@H](CCC(=O)O)NC(=O)[C@@H]1CCCN1C(=O)[C@H](Cc1cnc[nH]1)NC(=O)[C@H](CC(=O)O)NC(=O)[C@H](Cc1ccc(O)cc1)NC(=O)[C@H](CC(N)=O)NC(=O)[C@H](CS)NC(=O)[C@H](CCCNC(=N)N)NC(=O)[C@@H]1CCCN1C(=O)[C@H](CC(=O)O)NC(=O)[C@H](CO)NC(=O)[C@H](CS)NC(=O)[C@H](CS)NC(=O)CN)C(=O)N[C@@H](CS)C(N)=O | 320 | 4.6 | 70 |  | 
CC(C)C[C@H](NC(=O)[C@H](CCC(=O)O)NC(=O)[C@@H]1CCCN1C(=O)[C@H](Cc1cnc[nH]1)NC(=O)[C@H](CC(N)=O)NC(=O)[C@@H](NC(=O)[C@H](CO)NC(=O)[C@H](CS)NC(=O)[C@H](C)NC(=O)[C@@H]1CCCN1C(=O)[C@H](Cc1cnc[nH]1)NC(=O)[C@H](CO)NC(=O)[C@H](CS)NC(=O)[C@H](CS)NC(=O)CN)C(C)C)C(=O)N[C@@H](CS)C(N)=O (H-GCCSHPACSVNHPELC-NH2) | 22.2 | 3.2 | 6.9 |  | 
C[C@@H](O)[C@H](NC(=O)[C@H](CS)NC(=O)[C@H](CS)NC(=O)CN)C(=O)N[C@@H](CC(=O)O)C(=O)N1CCC[C@H]1C(=O)N[C@@H](CCCNC(=N)N)C(=O)N[C@@H](CS)C(=O)N[C@@H](CCCNC(=N)N)C(=O)N[C@@H](Cc1ccc(O)c(I)c1)C(=O)N[C@@H](CCC(N)=O)C(=O)N[C@@H](CS)C(=O)N[C@@H](Cc1ccc(O)cc1)C(=O)O | 1.5 | 1.7 | 0.9 |  | 
N=C(N)NCCC[C@H](NC(=O)[C@H](CS)NC(=O)[C@H](CCCNC(=N)N)NC(=O)[C@H](Cc1ccc(O)cc1)NC(=O)[C@H](CCCNC(=N)N)NC(=O)[C@H](CS)NC(=O)[C@H](CCCNC(=N)N)NC(=O)[C@@H]1CCCN1C(=O)[C@H](CC(=O)O)NC(=O)[C@H](CO)NC(=O)[C@H](CS)NC(=O)[C@H](CS)NC(=O)CN)C(=O)O | 494 | 329 | 1.5 |  | 
CC[C@H](C)[C@@H]1NC(=O)[C@H](CCCNC(=N)N)NC(=O)[C@H](CCCNC(=N)N)NC(=O)[C@@H](NC(=O)[C@H](Cc2ccc(O)cc2)NC(=O)[C@H](CCCNC(=N)N)NC(=O)[C@H](C)NC(=O)[C@H](CCCNC(=N)N)NC(=O)[C@H](CCCNC(=N)N)NC(=O)[C@H](CC(=O)O)NC(=O)[C@H](Cc2ccc(O)cc2)NC(=O)[C@@H]2CCCN2C(=O)[C@H](CO)NC(=O)[C@H](CCCNC(=N)N)NC(=O)[C@@H]2CSSC[C@H](NC(=O)[C@@H](N)[C@@H](C)O)C(=O)N[C@@H](CCCNC(=N)N)C(=O)N[C@@H](CO)C(=O)N[C@@H](CO)C(=O)NCC(=O)N[C@@H](CCCNC(=N)N)C(=O)N[C@@H](Cc3ccc(O)cc3)C(=O)N2)CSSC[C@@H](C(=O)N[C@H](C(=O)O)C(C)C)NC(=O)[C@H](C)NC(=O)[C@H](CC(=O)O)NC(=O)[C@H]([C@@H](C)O)NC1=O |  |  | 27 | 4480 | Stability [4]: Stable
CC(C)[C@H](NC(=O)[C@@H]1CSSC[C@H](NC(=O)[C@@H](N)[C@@H](C)O)C(=O)N[C@@H](CCCNC(=N)N)C(=O)N[C@@H](CO)C(=O)N[C@@H](CO)C(=O)NCC(=O)N[C@@H](CCCNC(=N)N)C(=O)N[C@@H](Cc2ccc(O)cc2)C(=O)N[C@H]2CSSC[C@H](NC(=O)[C@H](Cc3ccc(O)cc3)NC(=O)[C@H](CCCNC(=N)N)NC(=O)[C@H](CCCNC(=N)N)NC(=O)[C@H](CCCNC(=N)N)NC(=O)[C@H](CCCNC(=N)N)NC(=O)[C@H](CC(=O)O)NC(=O)[C@H](Cc3ccc(O)cc3)NC(=O)[C@@H]3CCCN3C(=O)[C@H](CO)NC(=O)[C@H](CCCNC(=N)N)NC2=O)C(=O)N[C@@H](CCCNC(=N)N)C(=O)N[C@@H](CCCNC(=N)N)C(=O)N[C@@H](C)C(=O)N[C@@H]([C@@H](C)O)C(=O)N[C@@H](CC(=O)O)C(=O)N[C@@H](C)C(=O)N1)C(=O)O | 11 |  | 1.4 | 1360 | Stability [4]: Stable; inhibition [6]: 60%; Activity [7]: Active; inhibition [8]: Active; IC50 [9]: 3650 nM; IC50 [10]: 2990 nM; IC50 [11]: 6030 nM; IC50 [12]: 3150 nM; IC50 [13]: 8240 nM; IC50 [14]: 1460 nM; IC50 [15]: 4010 nM
CC[C@H](C)[C@@H]1NC(=O)[C@H](CCCNC(=N)N)NC(=O)[C@H](CCCNC(=N)N)NC(=O)[C@@H]2CSSC[C@H](NC(=O)[C@H](Cc3ccc(O)cc3)NC(=O)[C@H](CCCNC(=N)N)NC(=O)CNC(=O)[C@H](CO)NC(=O)[C@H](CO)NC(=O)[C@H](CCCNC(=N)N)NC(=O)[C@@H](NC(=O)[C@H](C)N)CSSC[C@@H](C(=O)N[C@H](C(=O)O)C(C)C)NC(=O)[C@H](C)NC(=O)[C@H](C)NC(=O)[C@H]([C@@H](C)O)NC1=O)C(=O)N[C@@H](CCCNC(=N)N)C(=O)N[C@@H](CO)C(=O)N1CCC[C@H]1C(=O)N[C@@H](Cc1ccc(O)cc1)C(=O)N[C@@H](CC(=O)O)C(=O)N[C@@H](CCCNC(=N)N)C(=O)N[C@@H](CCCNC(=N)N)C(=O)N[C@@H](CCCNC(=N)N)C(=O)N[C@@H](CCCNC(=N)N)C(=O)N[C@@H](Cc1ccc(O)cc1)C(=O)N2 |  |  | 27 | 5890 | 
CC[C@H](C)[C@@H]1NC(=O)[C@H](CCCNC(=N)N)NC(=O)[C@H](CCCNC(=N)N)NC(=O)[C@@H]2CSSC[C@H](NC(=O)[C@H](Cc3ccc(O)cc3)NC(=O)[C@H](CCCNC(=N)N)NC(=O)CNC(=O)[C@H](CO)NC(=O)[C@H](CO)NC(=O)[C@H](CCCNC(=N)N)NC(=O)[C@@H](NC(=O)[C@@H](N)[C@@H](C)O)CSSC[C@@H](C(=O)N[C@H](C(=O)O)C(C)C)NC(=O)[C@H](C)NC(=O)[C@H](CC(=O)O)NC(=O)[C@H]([C@@H](C)O)NC1=O)C(=O)N[C@@H](CCCNC(=N)N)C(=O)N[C@@H](CO)C(=O)N1CCC[C@H]1C(=O)N[C@@H](Cc1ccc(O)cc1)C(=O)N[C@@H](CC(=O)O)C(=O)N[C@@H](CCCNC(=N)N)C(=O)N[C@@H](CCCNC(=N)N)C(=O)N[C@@H](CCCNC(=N)N)C(=O)N[C@@H](C)C(=O)N[C@@H](Cc1ccc(O)cc1)C(=O)N2 |  |  | 27 | > 10000 | 
CC[C@H](C)[C@@H]1NC(=O)[C@H](CCCNC(=N)N)NC(=O)[C@H](CCCNC(=N)N)NC(=O)[C@@H]2CSSC[C@H](NC(=O)[C@H](Cc3ccc(O)cc3)NC(=O)[C@H](CCCNC(=N)N)NC(=O)CNC(=O)[C@H](CO)NC(=O)[C@H](CO)NC(=O)[C@H](CCCNC(=N)N)NC(=O)[C@@H](NC(=O)[C@@H](N)[C@@H](C)O)CSSC[C@@H](C(=O)N[C@H](C(=O)O)C(C)C)NC(=O)[C@H](C)NC(=O)[C@H](CC(=O)O)NC(=O)[C@H]([C@@H](C)O)NC1=O)C(=O)N[C@@H](CCCNC(=N)N)C(=O)N[C@@H](CO)C(=O)N1CCC[C@H]1C(=O)N[C@@H](Cc1ccc(O)cc1)C(=O)N[C@@H](CC(=O)O)C(=O)N[C@@H](CCCNC(=N)N)C(=O)N[C@@H](CCCNC(=N)N)C(=O)N[C@@H](C)C(=O)N[C@@H](CCCNC(=N)N)C(=O)N[C@@H](Cc1ccc(O)cc1)C(=O)N2 |  |  | 58 | > 10000 | 
CC[C@H](C)[C@@H]1NC(=O)[C@H](CCCNC(=N)N)NC(=O)[C@H](CCCNC(=N)N)NC(=O)[C@@H]2CSSC[C@H](NC(=O)[C@H](Cc3ccc(O)cc3)NC(=O)[C@H](CCCNC(=N)N)NC(=O)CNC(=O)[C@H](CO)NC(=O)[C@H](CO)NC(=O)[C@H](CCCNC(=N)N)NC(=O)[C@@H](NC(=O)[C@H](C)N)CSSC[C@@H](C(=O)N[C@H](C(=O)O)C(C)C)NC(=O)[C@H](C)NC(=O)[C@H](CC(=O)O)NC(=O)[C@H]([C@@H](C)O)NC1=O)C(=O)N[C@@H](CCCNC(=N)N)C(=O)N[C@@H](CO)C(=O)N1CCC[C@H]1C(=O)N[C@@H](Cc1ccc(O)cc1)C(=O)N[C@@H](CC(=O)O)C(=O)N[C@@H](CCCNC(=N)N)C(=O)N[C@@H](CCCNC(=N)N)C(=O)N[C@@H](CCCNC(=N)N)C(=O)N[C@@H](CCCNC(=N)N)C(=O)N[C@@H](Cc1ccc(O)cc1)C(=O)N2 |  |  | 14 | 2450 | 

From ChEMBL document CHEMBL5346973 (J Med Chem, 2023)
